By pIC50 is commonly meant the IC50 on a negative log10 scale, so that one unit is a factor of ten. A higher pIC50 goes with a small IC50.

SMILES strings stand for the structures. pIC50: −log10 of the molar value.

Here are results for 51 compounds from US8686003B2, “Tissue non-specific alkaline phosphatase inhibitors and uses thereof for treating vascular calcification” (Sanford-Burnham Medical Research Institute, priority 2007, dated 2014).

The experiment has as its target T1, tissue-nonspecific alkaline phosphatase (TNAP) (Homo sapiens, UniProt P05186).
T1 construct: made in house; host or cells: COS-1 cells, transient expression; dialyzed serum-free conditioned medium
T1 sequence (P05186 18-502 limits assumed): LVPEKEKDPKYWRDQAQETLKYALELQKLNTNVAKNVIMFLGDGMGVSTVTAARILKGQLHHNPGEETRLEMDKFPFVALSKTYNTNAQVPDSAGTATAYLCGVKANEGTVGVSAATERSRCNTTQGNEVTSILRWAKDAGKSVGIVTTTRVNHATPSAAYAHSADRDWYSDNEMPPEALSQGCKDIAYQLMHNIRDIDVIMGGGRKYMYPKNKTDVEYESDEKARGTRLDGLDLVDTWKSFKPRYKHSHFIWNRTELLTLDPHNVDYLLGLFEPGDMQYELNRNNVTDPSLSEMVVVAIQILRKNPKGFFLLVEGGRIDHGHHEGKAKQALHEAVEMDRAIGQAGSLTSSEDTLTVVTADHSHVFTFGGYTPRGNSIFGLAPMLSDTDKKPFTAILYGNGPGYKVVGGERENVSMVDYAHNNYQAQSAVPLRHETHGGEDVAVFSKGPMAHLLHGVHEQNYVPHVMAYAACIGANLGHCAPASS
The experiment can be described thus: TNAP inhibition screening assay (colorimetric pNPP / luminescence CDP-star), IC50. It counts as biochemical. Particulars: Tables A-H; tissue-nonspecific alkaline phosphatase inhibitors. As for the experimental part:
Expression plasmids containing a secreted epitope-tagged TNAP, PLAP and IAP were transfected into COS-1 cells for transient expression using a standard electroporation method. Medium was replaced to Opti-MEM 24 hours later, and the serum free media containing secreted proteins were collected 60 hours after electroporation. Conditioned medium was dialyzed against TBS containing 1 mM MgCl2 ad 20 μM ZnCl2 (to remove phosphate) and filtrated with a 2 μm cellulose acetate filter.
A TNAP stock solution was diluted 120-fold and about 12 ul of diluted TNAP solution were dispensed into 96 well microtiter plates with half area bottom (Costar, Corning, N.Y.) by an auto dispenser (Matrix, Hudson, N.H.). A robotic liquid handler, Biomek™ FX (Beckman Coulter, Fullerton, Calif.) dispensed about 2.5 μl of each compound (dissolved in 10% DMSO) from the library plates. Plates were incubated at room temperature for at least one hour to allow TNAP to interact with each compound prior to addition of about 10.5 μl substrate solution (1.19 mM pNPP). After about 30 minutes of incubation, A405 nm was measured with a microtiter plate reader, Analyst™ HT (Molecular Devices, Sunnyvale, Calif.). Both the enzyme (TNAP) and substrate (pNPP) solution were made in diethanolamine (DEA) buffers; the final reaction contains 1M DEA-HCl buffer, pH about 9.8, containing about 1 mM MgCl2 and about 20 μM ZnCl2.
Compound aliquots (4 uL @ 100 uM in 10% DMSO) were added with about 8 uL of TNAP working solution, prepared by 800-fold dilution of TNAP in 2.5-fold assay buffer (250 mM DEA, pH 9.8, 2.5 mM MgCl2, 0.05 mM ZnCl2). CDP-star substrate solution (about 8 uL of 125 uM in water) was added to each well. […] Plates (white 384-well small volume Greiner 784075) were incubated at room temperature for about 0.5 hour and luminescence signal was measured using an EnVision plate reader (PerkinElmer).
For `O=C(O)c1cc(-c2ccccc2Cl)n[nH]1` [Compound A1, 3-(2-chlorophenyl)-1H-pyrazole-5-carboxylic acid], the negative-log IC50 (pIC50) was 6.17.

Consider `COC(=O)c1cc(-c2c[nH]c3ccccc23)[nH]n1` [Compound A2, methyl 3-(1H-indol-3-yl)-1H-pyrazole-5-carboxylate], for which the pIC50 was 6.09.

`O=C(O)c1cc(-c2ccc(Cl)cc2)n[nH]1` [Compound A3, 3-(4-chlorophenyl)-1H-pyrazole-5-carboxylic acid] had a pIC50 of 6.02.

`COC(=O)c1cc(-c2ccccc2)n[nH]1` [Compound A4, methyl 3-phenyl-1H-pyrazole-5-carboxylate] had a pIC50 of 6.01.

`Oc1cc(-c2cccc3ccccc23)n[nH]1` [Compound A5, 3-(napthalen-1-yl)-1H-pyrazol-5-ol] showed a pIC50 of 5.49.

As for `Nc1[nH]nc(-c2ccc(Br)cc2)c1Cl` [Compound A6, 3-(4-bromophenyl)-4-chloro-1-H-pyrazol-5-amine], the negative-log IC50 (pIC50) was 5.19.

In turn, `Cn1cccc1-c1cc(C(=O)O)[nH]n1` [Compound A7, 3-(1-methyl-1H-pyrrol-2-yl)-1H-pyrazole-5-carboxylate] showed a pIC50 of 4.99.

The compound `COC(=O)c1cc(-c2ccc(Br)cc2)n[nH]1` [Compound A8, methyl 3-(4-bromophenyl)-1H-pyrazole-5-carboxylate] had a pIC50 of 6.51.

Compound `CCCCc1[nH]nc2c1C(=O)CC(C)(C)C2` [Compound B1, 3-butyl-6,6-dimethyl-6,7-dihydro-2H-indazol-4(5H)-one] showed a pIC50 of 5.82. This pIC50 lies 0.69 log units lower than the previous one.

`CC1(C)CC(=O)c2c(n[nH]c2-c2cccs2)C1` [Compound B2, 6,6-dimethyl-3-(thiophen-2-yl)-6,7-dihydro-2H-indazol-4(5H)-one] had a pIC50 of 5.44.

Consider `CC1(C)CC(=O)c2c(n[nH]c2Cc2ccccc2)C1` [Compound B3, 3-benzyl-6,6-dimethyl-6,7-dihydro-2H-indazol-4(5H)-one], for which the pIC50 is 6.24.

As for `Cc1cc(O)oc2nnc(-c3ccccc3)c1-2` [Compound B4, 4-methyl-3-phenylpyrano[2,3-c]pyrazol-6-ol], the pIC50 is 6.00.

`COc1ccc(-c2nnc3oc(O)cc(C)c2-3)cc1` [Compound B5, 3-(4-methoxyphenyl)-4-methylpyrano[2,3-c]pyrazol-6-ol] gave a pIC50 of 5.87.

Turning to `COCc1n[nH]c2c1C(c1cc(OC)c(O)c(OC)c1)C(C#N)=C(N)O2` (stereo not drawn) [Compound B6, 6-amino-4-(4-hydroxy-3,5-dimethoxyphenyl)-3-(methoxymethyl)-1,4-dihydropyrano[2,3-c]pyrazole-5-carbonitrile], the pIC50 is 5.28.

In turn, `Cc1cc(NC(=O)COC(=O)c2[nH]nc3ccccc23)no1` [Compound B8, 2-(5-methylisoxazol-3-ylamino)-2-oxoethyl 2H-indazole-3-carboxylate] showed a pIC50 of 5.03.

Compound `COc1ccc2c(c1)CCc1c-2n[nH]c1C(=O)O` [Compound B9, 7-methoxy-4,5-dihydro-2H-benzo [g]indazole-3-carboxylic acid] showed a negative-log IC50 (pIC50) of 6.49.

The compound `O=C(O)c1[nH]nc2c1COc1ccccc1-2` [Compound B10, 2,4-dihydrochromeno[4,3-c]pyrazole-3-carboxylic acid] gave a pIC50 of 5.87.

`c1ccc(-c2n[nH]c3c2CCC3)cc1` [Compound B11, 3-phenyl-1,4,5,6-tetrahydrocyclopenta[c]pyrazole] had a negative-log IC50 (pIC50) of 5.47. This pIC50 lies 0.40 log units lower than the previous one.

`Nc1nc(CSc2n[nH]c(-c3ccccc3)n2)nc(Nc2ccccc2)n1` [Compound C1, N^2-phenyl-6-[(5-phenyl-1H-1,2,4-triazol-3-ylthio)methyl]-1,3,5-triazine-2,4-diamine] had a negative-log IC50 (pIC50) of 5.69. Against the preceding compound, the pIC50 is 0.22 log units higher.

Take `COc1ccccc1-c1nnc(SCc2ccccn2)[nH]1` [Compound C2, 2-((5-(2-methoxyphenyl)-4H-1,2,4-triazol-3-ylthio)methyl)pyridine]: the negative logarithm of the IC50 (pIC50) was 5.42.

`CCOC(=O)c1sc(NC(=O)CSc2nnc(-c3ccccc3OC)[nH]2)c(C#N)c1C` [Compound C3, ethyl 4-cyano-5-{2-[5-(2-methoxyphenyl)-4H-1,2,4-triazol-3-ylthio]acetamide}-3-methylthiophene-2-carboxylate] had a negative-log IC50 (pIC50) of 5.27.

For the compound `O=C(CSc1nnc(-c2ccccc2Br)[nH]1)NC(=O)NCc1ccco1` [Compound C4, 2-[5-(2-bromophenyl)-4H-1,2,4-triazol-3-ylthio]-N-(furan-2-ylmethylcarbamoyl)acetamide], the pIC50 was 5.60. This pIC50 is 0.33 log units higher than that of the compound before.

The compound `O=C(CSc1nnc(-c2ccccc2)[nH]1)NC(=O)NCc1ccco1` [Compound C5, N-(furan-2-ylmethylcarbamoyl)-2-(5-phenyl-4H-1,2,4-triazol-3-ylthio)acetamide] gave a pIC50 of 5.80.

Compound `O=C1C2CC=CCC2C(=O)N1c1nnc(Cc2ccccc2)[nH]1` (stereo not drawn) [Compound E2] had a pIC50 of 6.48.

`CCCSc1nnc(NC(C)=O)[nH]1` [Compound E3] had a negative-log IC50 (pIC50) of 6.17.

In turn, `[H]/N=C(C)\C(C#N)=C(\O)CSc1nnc(-c2ccccc2Br)[nH]1` [Compound E4] gave a pIC50 of 5.97.

Regarding `COc1ccccc1-c1nnc(NC(C)=O)[nH]1` [Compound E5], the pIC50 was 5.70.

As for `COc1cc(CSc2nnc[nH]2)c(OC)cc1CSc1nnc[nH]1` [Compound E6], the pIC50 is 5.70.

Take `COc1cc(C(=O)Nc2cc(-c3ccccc3)n[nH]2)cc(OC)c1OC` [Compound E7]: the pIC50 is 5.62.

Regarding `Clc1ccccc1-c1n[nH]c(-c2ccccc2)n1` [Compound E8], the negative-log IC50 (pIC50) was 5.61.

In turn, `COc1ccc(-c2nc3n(n2)C(=O)CC(c2ccco2)S3)cc1` (stereo not drawn) [Compound E9] gave a pIC50 of 5.42.

In turn, `CCOC(=O)C1C(=O)Nc2nc3ccccc3n2C1C(C)C` (stereo not drawn) [Compound E10] gave a pIC50 of 5.40.

On to `C=CCSc1nc(-c2ccc(OC)cc2)n[nH]1` [Compound E11], for which the pIC50 was 5.36.

In the case of `COc1ccc(OC)c(C(=O)CSc2nc3ccc[nH]c-3n2)c1` [Compound E12], the negative-log IC50 (pIC50) is 5.33.

For `Oc1nc2cc(Cl)ccc2n1-c1ccccc1` [Compound E13], the negative logarithm of the IC50 (pIC50) is 5.27.

Regarding `Cn1ncc2c1ncn1c(-c3ccccc3Cl)nnc21` [Compound E14], the pIC50 is 5.23.

With `O=C(CSc1nc2ccc[nH]c-2n1)c1ccc(F)cc1` [Compound E15], the pIC50 is 5.20.

`Cc1cccc(C)c1OCc1nnc2c3cnn(C)c3ncn12` [Compound E16]: the pIC50 was 5.16.

Consider `Cc1ccc(-n2ccc3c2ncn2c(C)nnc32)cc1C` [Compound E17], for which the pIC50 is 5.10.

Regarding `CC(C)C1N=C2c3ccccc3N=C(SCC(=O)c3ccc(O)c(O)c3)N2C1=O` (stereo not drawn) [Compound E18], the pIC50 was 4.99.

As for `Cc1ccsc1/C=c1\sc2ncnn2c1=O` [Compound E19], the pIC50 was 4.95.

As for `Cc1nc2c3cnn(-c4ccc(C)c(C)c4)c3ncn2n1` [Compound E20], the negative-log IC50 (pIC50) is 4.89.

Compound `Cn1ncc2c1ncn1nc(CCc3ccccc3)nc21` [Compound E21] gave a pIC50 of 4.80.

For the compound `CC1(C)Cc2c(sc3cc4n(c(=N)c23)CCCCC4)CO1` [Compound E22], the negative logarithm of the IC50 (pIC50) was 5.02.

Compound `COc1ccc(C)cc1S(=O)(=O)Nc1cccnc1` [Compound F2] showed a pIC50 of 6.12.

Regarding `CCOc1ccc(C)cc1S(=O)(=O)Nc1cccnc1` [Compound F3], the pIC50 was 5.71.

As for `COc1ccc(OC)c(S(=O)(=O)Nc2ccc(O)c(Sc3nc[nH]n3)c2)c1` [Compound F4], the negative logarithm of the IC50 (pIC50) was 5.07.

Regarding `O=P(O)(O)c1ccccc1OCCOCCOc1ccccc1P(=O)(O)O` [Compound G1], the pIC50 was 5.78. Compared with the last compound, the pIC50 is 0.71 log units higher.

`O=P(O)(O)c1ccccc1OCCCCCOc1ccccc1P(=O)(O)O` [Compound G2] gave a negative-log IC50 (pIC50) of 5.69. This pIC50 and that of the compound before are within 0.2 log units of each other.

Take `O=C(CCCn1c(SCC(=O)c2ccc(O)c(O)c2)nc2ccccc2c1=O)NCC1CCCO1` (stereo not drawn) [Compound H1]: the negative-log IC50 (pIC50) is 5.33.

`N#C/C(=C\c1ccc(O)c(O)c1)C(=O)NCCCc1ccccc1` [Compound H2] had a pIC50 of 5.29. This pIC50 and that of the compound before are within 0.2 log units of each other.
